Laboratory results taken from PMC5889410, “Design and Biological Evaluation of Antifouling Dihydrostilbene Oxime Hybrids” (Marine Biotechnology (New York, N.y.), 2018).
Values after ≈ are worked out from the molar mass of the structure shown.

Key:
[1] = test system: marine bacteria; test: Bacterial adhesion assay, whole panel of ten strains; type: cell-based, 10 marine bacterial strains; conditions: tested up to 10 μg/mL, active = MIC of 10 μg/mL or below
From the text: (§1) Cyprid larvae of B. improvisus were reared in a laboratory cultivating system at Tjärnö Marine Biological Laboratory, University of Gothenburg, Sweden, as previously described by Berntsson et al. ([2000]). Four pure, but non-axenic, marine microalgae (obtained from Algobank, Caen, France) and 10 marine bacterial strains were used (Table 1) as representative microfoulers. These strains represent fouling species encountered in both estuarine and marine environments (Moodie et al. [2017b]). The bacteria were grown at 26 °C in a marine medium, composed of 0.5% peptone (neutralized bacteriological peptone, Oxoid Ltd.) in filtered (Whatman 1001–270, pore size 11 μm) natural seawater. Microalgae were grown and maintained at 22 °C in F/2 medium.
(§2) Bacterial strain adhesion and growth were determined according to the methods of Thabard et al. ([2011]). Bacterial suspensions (100-μL aliquots, 2 × 10^8 colony forming units/mL) were aseptically added to the compound containing microplate wells (10–0.01 μg/mL), and the plates were incubated for 48 h at 26 °C. Media only was used as a blank. Bacterial growth was monitored spectroscopically at 630 nm. The minimal inhibitory concentration (MIC) for bacterial growth was defined as the lowest concentration which results in a decrease in OD. After 48-h incubation time, the bacterial adhesion assay was conducted by emptying the wells and rinsing with sterile seawater (100 μL) to remove non-attached cells, and air-drying at room temperature. The residual bacterial biofilm was stained with aqueous crystal violet (100 μL, 0.3% v/v) and the OD measured at 595 nm (Sonak and Bhosle [1995]). […] If inhibition was observed, toxicity tests were conducted. The well contents were transferred into a flask of fresh media, and growth was measured after 5 days of additional incubation. The mode of action was deemed biostatic if an increase in OD was measured at 595 nm (Moodie et al. [2017a]).

[2] = test system: Balanus improvisus cyprid larvae; test: whole plant or invertebrate; type: in vivo; conditions: for IC50: Amphibalanus improvisus, 120 h, read-out: IC50 (cyprid settlement inhibition)
Method in brief: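 Freshly molted cyprids (18–22 per dish) exposed in filtered seawater to 0.1–10 μg/mL compound (0.1% DMSO controls) for 5 days at 20–25 °C. Settled, swimming and dead larvae counted by microscope; IC50 is the concentration preventing 50% settlement, n = 4, determined only for compounds inhibiting >50% at 5 μg/mL.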

[3] = test system: Pleurochrysis roscoffensis; test: Microalgal adhesion assay (chlorophyll a); type: cell-based; conditions: Chrysotila roscoffensis, 120 h, 5 days incubation, 10–0.01 μg/mL tested, read-out: MIC against the adhesion (A) of microalgae, P. roscoffensis
From the text: as §1
(§3) Microplates containing the compounds in ranging concentrations (10–0.01 μg/mL) were prepared from MeOH stock solutions as previously described (Trepos et al. [2014]; Moodie et al. [2017a]). Microalgal stock solutions were prepared using the chlorophyll analysis methodology of Chambers et al. ([2011]). The pretreated microplate wells were treated with 100 μL of the algal stock solutions (0.1 mg chlorophyll a/mL). The plates were then incubated for 5 days at 20 °C under constant light exposure (140 μmol m^−2 s^−1). Both microalgal adhesion and growth inhibition were measured. Growth was determined by analysis of liberated chlorophyll a after centrifugation and methanol addition. Chlorophyll a was quantified fluorometrically. MIC value for algal growth was defined as the lowest concentration yielding a decrease in chlorophyll a content. Microalgal adhesion was determined in an analogous manner where the non-attached algal cells were removed prior to methanol addition (100 μL), releasing chlorophyll a from the remaining algal biofilms. The MIC for adhesion was defined as the lowest compound concentration causing a reduction in […]. Toxicity experiments were performed in an analogous manner to those described for the bacterial assays.

[4] = test system: Porphyridium purpureum; test: Microalgal adhesion assay (chlorophyll a); type: cell-based; conditions: 120 h, 5 days incubation, 10–0.01 μg/mL tested, read-out: MIC against the adhesion (A) of microalgae, P. purpureum
From the text: as §1, §3

[5] = test system: Cylindrotheca closterium; test: Microalgal adhesion assay (chlorophyll a); type: cell-based; conditions: 120 h, 5 days incubation, 10–0.01 μg/mL tested, read-out: MIC against the adhesion (A) of microalgae, C. closterium
From the text: as §1, §3

[6] = test system: Halomonas aquamarina; test: Bacterial growth assay (OD 630 nm); type: cell-based; conditions: Vreelandella aquamarina, 48 h incubation, 10–0.01 μg/mL tested, read-out: MIC against the growth of marine bacteria, H.a.
From the text: as §1, §2

[7] = test system: Vibrio harveyi; test: Bacterial growth assay (OD 630 nm); type: cell-based; conditions: 48 h incubation, 10–0.01 μg/mL tested, read-out: MIC against the growth of marine bacteria, V.h.
From the text: as §1, §2

[8] = test system: Shewanella putrefaciens; test: Bacterial growth assay (OD 630 nm); type: cell-based; conditions: 48 h incubation, 10–0.01 μg/mL tested, read-out: MIC against the growth of marine bacteria, S.p.
From the text: as §1, §2

[9] = test system: Roseobacter litoralis; test: Bacterial growth assay (OD 630 nm); type: cell-based; conditions: 48 h incubation, 10–0.01 μg/mL tested, read-out: MIC against the growth of marine bacteria, R.l.
From the text: as §1, §2

[10] = test system: Vibrio carchariae; test: Bacterial growth assay (OD 630 nm); type: cell-based; conditions: Vibrio harveyi, 48 h incubation, 10–0.01 μg/mL tested, read-out: MIC against the growth of marine bacteria, V.c.
From the text: as §1, §2

[11] = test system: Vibrio aestuarianus; test: Bacterial growth assay (OD 630 nm); type: cell-based; conditions: 48 h incubation, 10–0.01 μg/mL tested, read-out: MIC against the growth of marine bacteria, V.a.
From the text: as §1, §2

[12] = test system: Vibrio natriegens; test: Bacterial growth assay (OD 630 nm); type: cell-based; conditions: 48 h incubation, 10–0.01 μg/mL tested, read-out: MIC against the growth of marine bacteria, V.n.
From the text: as §1, §2

[13] = test system: Vibrio proteolyticus; test: Bacterial growth assay (OD 630 nm); type: cell-based; conditions: 48 h incubation, 10–0.01 μg/mL tested, read-out: MIC against the growth of marine bacteria, V.p.
From the text: as §1, §2

[14] = test system: Pseudoalteromonas elyakovii; test: Bacterial growth assay (OD 630 nm); type: cell-based; conditions: 48 h incubation, 10–0.01 μg/mL tested, read-out: MIC against the growth of marine bacteria, P.e.
From the text: as §1, §2

[15] = test system: Halamphora coffeaeformis; test: Microalgal growth assay (chlorophyll a); type: cell-based; conditions: Halamphora coffeiformis, 120 h, 5 days incubation, 10–0.01 μg/mL tested, read-out: MIC against the growth (G) of microalgae, H. coffeaformis
From the text: as §1, §3

[16] = test system: Pleurochrysis roscoffensis; test: Microalgal growth assay (chlorophyll a); type: cell-based; conditions: Chrysotila roscoffensis, 120 h, 5 days incubation, 10–0.01 μg/mL tested, read-out: MIC against the growth (G) of microalgae, P. roscoffensis
From the text: as §1, §3

[17] = test system: Porphyridium purpureum; test: Microalgal growth assay (chlorophyll a); type: cell-based; conditions: 120 h, 5 days incubation, 10–0.01 μg/mL tested, read-out: MIC against the growth (G) of microalgae, P. purpureum
From the text: as §1, §3

[18] = test system: Cylindrotheca closterium; test: Microalgal growth assay (chlorophyll a); type: cell-based; conditions: 120 h, 5 days incubation, 10–0.01 μg/mL tested, read-out: MIC against the growth (G) of microalgae, C. closterium
From the text: as §1, §3

[19] = test system: microalgae; test: Microalgal adhesion and growth, whole panel of four species; type: cell-based, four marine microalgae; conditions: 10–0.01 μg/mL tested
From the text: as §1, §3

[20] = test system: marine bacteria; test: Bacterial growth assay, whole panel of ten strains; type: cell-based, 10 marine bacterial strains; conditions: tested up to 10 μg/mL
From the text: as §1, §2

[21] = test system: Halamphora coffeaeformis; test: Microalgal adhesion assay (chlorophyll a); type: cell-based; conditions: Halamphora coffeiformis, 120 h, 5 days incubation, 10–0.01 μg/mL tested, read-out: MIC against the adhesion (A) of microalgae, H. coffeaformis
From the text: as §1, §3

[22] = test system: Halomonas aquamarina; test: Bacterial adhesion assay (crystal violet, OD 595 nm); type: cell-based; conditions: Vreelandella aquamarina, 48 h incubation, 10–0.01 μg/mL tested, read-out: MIC against the adhesion of marine bacteria, H.a.
From the text: as §1, §2

[23] = test system: Vibrio harveyi; test: as above; type: cell-based; conditions: 48 h, read-out: MIC against the adhesion of marine bacteria, V.h.
From the text: as §1, §2

[24] = test system: Vibrio carchariae; test: as above; type: cell-based; conditions: Vibrio harveyi, 48 h, read-out: MIC against the adhesion of marine bacteria, V.c.
From the text: as §1, §2

[25] = test system: Vibrio aestuarianus; test: as above; type: cell-based; conditions: 48 h, read-out: MIC against the adhesion of marine bacteria, V.a.
From the text: as §1, §2

[26] = test system: Vibrio proteolyticus; test: as above; type: cell-based; conditions: 48 h, read-out: MIC against the adhesion of marine bacteria, V.p.
From the text: as §1, §2

COc1ccc(CC(=NO)c2ccc(O)c(OC)c2)cc1 [Compound 11, 1-(3-methoxy-4-hydroxyphenyl)-1-hydroxyimino-2-(4’-methoxyphenyl)-ethane]
MIC / activity against the adhesion of all bacteria tested [1]: ^aCompounds 7, 8, 10, 11, and 12 were inactive against the adhesion of all bacteria tested up to 10 μg/mL | IC50 [2]: > 5 µg/mL | inhibition of cyprid settlement in the initial screen ([2]; B. improvisus, at 5.0 μg/mL): inactive | Toxicity (%) (dead cyprids) ([2]; Balanus improvisus, in vivo, 5 days, 5 μg/mL): 5.3% | MIC [3]: > 10 µg/mL | MIC [4]: > 10 µg/mL | MIC [5]: > 10 µg/mL | MIC [6]: 10 µg/mL (≈ 34.8 µM) | MIC [7]: > 10 µg/mL | MIC [8]: > 10 µg/mL | MIC [9]: > 10 µg/mL | MIC [10]: > 10 µg/mL | MIC [11]: > 10 µg/mL | MIC [12]: > 10 µg/mL | MIC [13]: > 10 µg/mL | MIC [14]: > 10 µg/mL | MIC [15]: > 10 µg/mL | MIC [16]: 10 µg/mL (≈ 34.8 µM) | MIC [17]: 10 µg/mL (≈ 34.8 µM) | MIC [18]: 10 µg/mL (≈ 34.8 µM)

COc1cc(OC)cc(C(Cc2ccccc2)=NO)c1 [Compound 15, 1-(3,5-Dimethoxyphenyl)-1-Hydroxyimino-2-Phenylethane]
MIC / activity against the adhesion of all bacteria tested [1]: displayed inhibitory activities | MIC / activity against the attachment and growth of microalgae [19]: not significantly active | IC50 [2]: 0.75 µg/mL (≈ 2.76 µM) | MIC / activity against the growth of all bacteria tested [20]: ^aCompound 15 was inactive against the growth of all bacteria tested up to 10 μg/mL | MIC [21]: 10 µg/mL (≈ 36.9 µM) | MIC [15]: > 10 µg/mL | MIC [16]: > 10 µg/mL | MIC [17]: > 10 µg/mL | MIC [18]: > 10 µg/mL | MIC [22]: 10 µg/mL (≈ 36.9 µM) | MIC [23]: 10 µg/mL (≈ 36.9 µM) | MIC [24]: 10 µg/mL (≈ 36.9 µM) | MIC [25]: 10 µg/mL (≈ 36.9 µM) | MIC [26]: > 10 µg/mL
